Source: patent publication US9365588B2, “Benzoxazines as modulators of ion channels” (Vertex Pharmaceuticals Incorporated, priority 2011, dated 2016)

Biological target: human NaV 1.7 (Homo sapiens, UniProt Q15858)
Assay: E-VIPR optical membrane potential assay with electrical stimulation
Type: cell-based
Settings: sodium channel inhibition; read-out: Binned Activity Data (IC50)
How it was run: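 Membrane-potential read-out: background-subtracted 460 nm/580 nm ratio during a 9 s current-controlled stimulus, 400 Hz scan. Before stimulation, NaV1.7-HEK cells carried coumarin/oxonol dye and compound (final DMSO 0.625%) for 20–35 min at room temperature; tetracaine 125 μM served as positive control.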

Sequence of human NaV 1.7 (Q15858 whole entry): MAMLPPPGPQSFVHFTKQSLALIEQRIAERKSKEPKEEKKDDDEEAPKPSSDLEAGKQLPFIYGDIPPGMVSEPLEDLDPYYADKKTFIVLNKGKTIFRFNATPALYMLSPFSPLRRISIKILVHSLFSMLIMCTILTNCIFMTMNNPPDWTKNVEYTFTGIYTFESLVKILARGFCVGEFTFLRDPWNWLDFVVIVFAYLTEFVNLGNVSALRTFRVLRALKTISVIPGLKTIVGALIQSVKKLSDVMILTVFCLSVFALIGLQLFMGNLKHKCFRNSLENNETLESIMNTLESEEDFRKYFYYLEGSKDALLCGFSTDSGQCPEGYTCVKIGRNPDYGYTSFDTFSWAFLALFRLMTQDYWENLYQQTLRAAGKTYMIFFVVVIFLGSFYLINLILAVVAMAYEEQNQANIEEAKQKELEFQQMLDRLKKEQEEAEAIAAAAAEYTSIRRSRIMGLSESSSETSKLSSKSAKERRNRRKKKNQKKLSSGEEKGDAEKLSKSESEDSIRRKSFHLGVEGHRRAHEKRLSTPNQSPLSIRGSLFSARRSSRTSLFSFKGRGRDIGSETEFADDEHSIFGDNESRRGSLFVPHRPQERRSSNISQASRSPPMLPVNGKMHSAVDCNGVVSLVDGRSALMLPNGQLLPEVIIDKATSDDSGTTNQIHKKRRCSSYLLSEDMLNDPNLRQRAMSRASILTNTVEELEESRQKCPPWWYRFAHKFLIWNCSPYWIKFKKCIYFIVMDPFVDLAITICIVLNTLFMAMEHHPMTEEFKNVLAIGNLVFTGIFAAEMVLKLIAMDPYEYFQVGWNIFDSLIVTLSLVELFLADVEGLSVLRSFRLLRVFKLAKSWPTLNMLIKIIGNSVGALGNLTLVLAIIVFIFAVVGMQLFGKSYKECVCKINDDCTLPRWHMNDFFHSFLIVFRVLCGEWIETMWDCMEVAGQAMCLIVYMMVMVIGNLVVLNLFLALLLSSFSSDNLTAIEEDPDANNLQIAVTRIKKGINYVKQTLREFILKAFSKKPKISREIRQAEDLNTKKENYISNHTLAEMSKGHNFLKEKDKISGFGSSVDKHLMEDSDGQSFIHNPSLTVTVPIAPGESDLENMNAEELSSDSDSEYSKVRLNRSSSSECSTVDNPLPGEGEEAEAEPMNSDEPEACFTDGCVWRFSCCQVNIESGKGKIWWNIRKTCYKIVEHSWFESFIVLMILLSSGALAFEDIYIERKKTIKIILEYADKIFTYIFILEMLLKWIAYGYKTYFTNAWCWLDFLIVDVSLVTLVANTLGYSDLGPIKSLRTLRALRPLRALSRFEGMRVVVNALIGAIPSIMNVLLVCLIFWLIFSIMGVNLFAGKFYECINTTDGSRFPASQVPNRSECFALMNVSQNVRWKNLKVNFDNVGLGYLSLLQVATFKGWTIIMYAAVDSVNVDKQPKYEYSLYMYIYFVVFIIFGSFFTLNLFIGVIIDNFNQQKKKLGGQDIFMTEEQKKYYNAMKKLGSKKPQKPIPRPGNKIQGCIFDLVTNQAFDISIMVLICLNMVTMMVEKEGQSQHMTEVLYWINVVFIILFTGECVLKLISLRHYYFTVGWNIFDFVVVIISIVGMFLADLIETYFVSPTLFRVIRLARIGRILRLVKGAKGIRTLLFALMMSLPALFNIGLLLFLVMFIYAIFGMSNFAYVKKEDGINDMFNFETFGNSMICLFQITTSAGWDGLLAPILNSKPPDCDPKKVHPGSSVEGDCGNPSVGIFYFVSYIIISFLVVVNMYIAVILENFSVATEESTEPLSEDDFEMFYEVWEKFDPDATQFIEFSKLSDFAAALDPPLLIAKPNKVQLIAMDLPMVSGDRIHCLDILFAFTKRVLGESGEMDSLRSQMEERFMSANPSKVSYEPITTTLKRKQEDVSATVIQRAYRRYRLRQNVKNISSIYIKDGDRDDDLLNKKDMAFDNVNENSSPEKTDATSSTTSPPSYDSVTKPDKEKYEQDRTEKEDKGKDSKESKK

Row | SMILES | IC50
1 | CS(=O)(=O)c1ccc(C(=O)N2CCC3(CC2)Oc2ccccc2-n2c(C#N)ccc23)cc1C(F)(F)F [Compound 504] | ≤ 2 µM
2 | O=C(c1ccc(O[C@@H]2CCOC2)c(C(F)(F)F)c1)N1CCC2(CC1)Oc1ccccc1-n1cccc12 [Compound 170] | ≤ 2 µM
3 | Cc1cccc(C(=O)N2CCC3(CC2)Oc2ccccc2-c2c3cnn2C)c1 [Compound 491] | > 5 µM
4 | COC[C@H](C)Oc1ccc(C(=O)N2CCC3(CC2)Oc2ccccc2-n2cccc23)cc1OC [Compound 725] | ≤ 2 µM
5 | Cn1ncc2c1-c1ccccc1OC21CCN(C(=O)c2cccc3c2OC(C)(C)C3)CC1 [Compound 350] | ≤ 2 µM
6 | Cc1cc(OC(F)(F)F)ccc1C(=O)N1CCC2(CC1)Oc1ccccc1-c1c2cnn1C [Compound 84] | 2 to 5 µM
7 | COc1cccc(F)c1C(=O)N1CCC2(CC1)Oc1ccccc1-n1c2ccc1S(C)(=O)=O [Compound 614] | 2 to 5 µM
8 | CC(=O)c1ccc2n1-c1ccccc1OC21CCN(C(=O)c2ccc(S(=O)(=O)NC3CC3)cc2)CC1 [Compound 235] | ≤ 2 µM
9 | COc1cc(C(=O)N2CCC3(CC2)Oc2ccccc2-c2c3cnn2C)ccc1OCC(C)C [Compound 47] | ≤ 2 µM
10 | COc1c(C)cccc1C(=O)N1CCC2(CC1)Oc1ccccc1-c1c2cnn1C [Compound 109] | ≤ 2 µM
11 | COc1ccc(C(=O)N2CCC3(CC2)Oc2cc(Cl)ccc2-n2cccc23)c(OC(F)(F)F)c1 [Compound 729] | ≤ 2 µM
12 | CC(C)Oc1cccc(C(=O)N2CCC3(CC2)Oc2ccccc2-n2c(C#N)ccc23)c1F [Compound 770] | ≤ 2 µM
13 | Cn1ncc2c1-c1ccccc1OC21CCN(C(=O)c2cn(C)c3ccccc23)CC1 [Compound 218] | ≤ 2 µM
14 | CCc1ccc(C(=O)N2CCC3(CC2)Oc2cc(Cl)ccc2-n2cccc23)cc1OC [Compound 697] | ≤ 2 µM
15 | CC(C)Oc1ccc(C(=O)N2CCC3(CC2)Oc2ccccc2-c2nn(C)cc23)cn1 [Compound 830] | ≤ 2 µM
16 | COc1cc(C(=O)N2CCC3(CC2)Oc2cc(Cl)ccc2-n2cccc23)ccc1O[C@@H]1CCC[C@H]1O [Compound 348] | ≤ 2 µM
17 | CC(C)(C)Sc1ccc(C(=O)N2CCC3(CC2)Oc2ccccc2-n2c(C(F)(F)F)ccc23)cc1 [Compound 879] | ≤ 2 µM
18 | CC(C)Oc1ccc(C(=O)N2CCC3(CC2)Oc2ccccc2-n2c(C#N)ccc23)cc1F [Compound 42] | ≤ 2 µM
19 | COc1cc(C)ccc1C(=O)N1CCC2(CC1)Oc1cc(Cl)ccc1-n1cccc12 [Compound 627] | ≤ 2 µM
20 | O=C(c1cccc(C(F)(F)F)c1)N1CCC2(CC1)Oc1cc(Cl)ccc1-n1cccc12 [Compound 367] | ≤ 2 µM
21 | Cc1c(C(=O)N2CCC3(CC2)Oc2ccccc2-c2c3cnn2C)cnn1-c1ccc(F)cc1 [Compound 814] | > 5 µM
22 | Cc1cc(C(=O)N2CCC3(CC2)Oc2cc(Cl)ccc2-n2cccc23)ccc1OC(C)C [Compound 737] | ≤ 2 µM
23 | Cc1cc(C(=O)N2CCC3(CC2)Oc2ccccc2-c2c3cnn2C)ccc1C(C)(C)O [Compound 750] | ≤ 2 µM
24 | COc1cc(C(=O)N2CCC3(CC2)Oc2cc(Cl)ccc2-n2cccc23)ccc1O[C@H]1CCOC1 [Compound 690] | 2 to 5 µM
25 | CCn1ncc2c1-c1cc(F)ccc1OC21CCN(C(=O)c2ccccc2OC(F)F)CC1 [Compound 446] | ≤ 2 µM

Row | SMILES | IC50
26 | Cc1cc(C(=O)N2CCC3(CC2)Oc2ccccc2-n2c(CNC=O)ccc23)ccc1OC(C)C [Compound 677] | ≤ 2 µM
27 | CCCOc1ccc(C(=O)N2CCC3(CC2)Oc2cc(Cl)ccc2-n2cccc23)cc1C(F)(F)F [Compound 269] | ≤ 2 µM
28 | COc1cc(OC(F)(F)F)ccc1C(=O)N1CCC2(CC1)Oc1ccccc1-c1c2cnn1C [Compound 121] | ≤ 2 µM
29 | O=C(c1ccccc1OC(F)F)N1CCC2(CC1)Oc1ccccc1-c1nn(C(F)(F)F)cc12 [Compound 752] | ≤ 2 µM
30 | CCCOc1ccc(C(=O)N2CCC3(CC2)Oc2ccccc2-n2cccc23)cc1C [Compound 764] | ≤ 2 µM
31 | CCn1ncc2c1-c1cc(F)ccc1OC21CCN(C(=O)c2ccc(OC(C)C)c(C)c2)CC1 [Compound 267] | ≤ 2 µM
32 | Cn1ncc2c1-c1ccccc1OC21CCN(C(=O)c2ccc(S(=O)(=O)C(F)(F)F)cc2)CC1 [Compound 663] | ≤ 2 µM
33 | CC(=O)c1ccc2n1-c1ccccc1OC21CCN(C(=O)c2ccccc2OC(F)F)CC1 [Compound 360] | ≤ 2 µM
34 | Cc1cccc(C(=O)N2CCC3(CC2)Oc2ccccc2-c2c3cnn2C)c1O [Compound 868] | 2 to 5 µM
35 | CC(C)S(=O)(=O)c1ccc(C(=O)N2CCC3(CC2)Oc2ccccc2-c2c3cnn2C)cc1 [Compound 613] | ≤ 2 µM
36 | COc1cc(C(=O)N2CCC3(CC2)Oc2ccccc2-c2nn(CC(F)(F)F)cc23)ccc1OCCC(C)C [Compound 589] | ≤ 2 µM
37 | Cn1ncc2c1-c1ccccc1OC21CCN(C(=O)c2ccc3nc(Cl)sc3c2)CC1 [Compound 842] | > 5 µM
38 | COc1cc(C(=O)N2CCC3(CC2)Oc2ccccc2-n2cccc23)ccc1C(C)(C)O [Compound 59] | ≤ 2 µM
39 | COc1cc(C(=O)N2CCC3(CC2)Oc2cc(Cl)ccc2-n2cccc23)ccc1C(C)(C)O [Compound 216] | ≤ 2 µM
40 | Cn1ncc2c1-c1ccc(Cl)cc1OC21CCN(C(=O)c2ccccc2OC(F)(F)F)CC1 [Compound 518] | ≤ 2 µM
41 | CCc1ccc(C(=O)N2CCC3(CC2)Oc2ccccc2-n2c(C(F)(F)F)ccc23)nc1 [Compound 564] | 2 to 5 µM
42 | COc1cc(C(=O)N2CCC3(CC2)Oc2ccccc2-n2cccc23)ccc1OCCCO [Compound 466] | ≤ 2 µM
43 | CCOc1ccc(C(=O)N2CCC3(CC2)Oc2ccccc2-c2c3cnn2C)c(OCC)c1C [Compound 13] | ≤ 2 µM
44 | Cc1cc(C(=O)N2CCC3(CC2)Oc2ccccc2-c2c3cnn2C)ccc1S(=O)(=O)C(C)(C)C [Compound 67] | ≤ 2 µM
45 | COc1cc(OC(C)(C)C)ccc1C(=O)N1CCC2(CC1)Oc1ccccc1-c1c2cnn1C [Compound 94] | ≤ 2 µM
46 | COc1cc(C(=O)N2CCC3(CC2)Oc2cc(Cl)ccc2-n2cccc23)ccc1OC[C@H](O)CO [Compound 90] | ≤ 2 µM
47 | COc1cc(C(=O)N2CCC3(CC2)Oc2ccccc2-n2cccc23)ccc1O[C@@H]1CCOC1 [Compound 112] | ≤ 2 µM
48 | CC[C@H](C)Oc1ccc(C(=O)N2CCC3(CC2)Oc2cc(F)ccc2-n2cccc23)cc1OC [Compound 142] | ≤ 2 µM
49 | COc1cc(C(=O)N2CCC3(CC2)Oc2cc(F)ccc2-n2cccc23)ccc1OC[C@@H](C)OC [Compound 30] | ≤ 2 µM
50 | COc1cc(OC)cc(C(=O)N2CCC3(CC2)Oc2cc(Cl)ccc2-n2cccc23)c1 [Compound 534] | ≤ 2 µM

Row | SMILES | IC50
51 | COc1cc(C(=O)N2CCC3(CC2)Oc2ccccc2-n2c(C#N)ccc23)ccc1OC(C)C [Compound 156] | ≤ 2 µM
52 | Cn1ncc2c1-c1ccccc1OC21CCN(C(=O)c2ccc3c(c2)OC(C)(C)C3)CC1 [Compound 422] | 2 to 5 µM
53 | O=C(c1cc(Cl)cc(C(F)(F)F)c1)N1CCC2(CC1)Oc1cc(Cl)ccc1-n1cccc12 [Compound 57] | ≤ 2 µM
54 | COc1cc(C(=O)N2CCC3(CC2)Oc2cc(Cl)ccc2-n2cccc23)ccc1C1(OC)COC1 [Compound 45] | ≤ 2 µM
55 | O=C(c1ccc(S(=O)(=O)C2CC2)cc1)N1CCC2(CC1)Oc1ccccc1-n1c(C(F)(F)F)ccc12 [Compound 270] | ≤ 2 µM
56 | Cn1cc2c(n1)-c1cc(F)ccc1OC21CCN(C(=O)c2ccccc2OC(F)(F)F)CC1 [Compound 175] | ≤ 2 µM
57 | CNC(=O)c1ccc2n1-c1ccc(Cl)cc1OC21CCN(C(=O)c2ccc(OC(C)C)c(C)c2)CC1 [Compound 245] | 2 to 5 µM
58 | CC(C)S(=O)(=O)c1ccc(C(=O)N2CCC3(CC2)Oc2ccccc2-n2c(C(F)F)ccc23)cc1 [Compound 260] | 2 to 5 µM
59 | Cc1cc(C(=O)N2CCC3(CC2)Oc2ccccc2-n2cccc23)ccc1OC(C)C [Compound 415] | ≤ 2 µM
60 | COCCOc1ccc(C(=O)N2CCC3(CC2)Oc2ccccc2-n2c(C(F)(F)F)ccc23)cc1OC [Compound 223] | ≤ 2 µM
61 | COc1cc(F)c(C(=O)N2CCC3(CC2)Oc2cc(Cl)ccc2-n2cccc23)cc1OC [Compound 561] | ≤ 2 µM
62 | COCCn1ccc(C(=O)N2CCC3(CC2)Oc2cc(Cl)ccc2-n2cccc23)cc1=O [Compound 552] | ≤ 2 µM
63 | CCCOc1ccc(C(=O)N2CCC3(CC2)Oc2ccccc2-c2c3cnn2C)cc1 [Compound 128] | ≤ 2 µM
64 | Nc1nc2ccc(C(=O)N3CCC4(CC3)Oc3ccccc3-n3c(C(F)(F)F)ccc34)cc2s1 [Compound 8] | 2 to 5 µM
65 | CCCOc1ccc(C(=O)N2CCC3(CC2)Oc2ccccc2-n2cccc23)cc1OC [Compound 352] | ≤ 2 µM
66 | O=C(c1ccccc1OC(F)F)N1CCC2(CC1)Oc1ccccc1-n1c(C(F)(F)F)ccc12 [Compound 618] | ≤ 2 µM
67 | O=C(c1ccc(OC2COC2)c(F)c1)N1CCC2(CC1)Oc1cc(Cl)ccc1-n1cccc12 [Compound 777] | ≤ 2 µM
68 | COc1cc(OC)c(C(=O)N2CCC3(CC2)Oc2ccccc2-c2nn(C)cc23)cc1OC [Compound 240] | 2 to 5 µM
69 | CC[C@@H](C)Oc1ccc(C(=O)N2CCC3(CC2)Oc2cc(Cl)ccc2-n2cccc23)cc1OC [Compound 681] | ≤ 2 µM
70 | Cn1ncc2c1-c1ccccc1OC21CCN(C(=O)c2ccccc2OC(F)(F)F)CC1 [Compound 452] | ≤ 2 µM
71 | COc1ccc(C(=O)N2CCC3(CC2)Oc2ccccc2-c2c3cnn2C)c(C)c1 [Compound 774] | ≤ 2 µM
72 | CC(C)(CO)c1ccc(C(=O)N2CCC3(CC2)Oc2ccccc2-n2c(C#N)ccc23)cc1 [Compound 810] | ≤ 2 µM
73 | COc1cc(C(=O)N2CCC3(CC2)Oc2ccccc2-c2c3cnn2CC(F)(F)F)ccc1OCCC(C)C [Compound 785] | ≤ 2 µM
74 | COc1ccc(C(=O)N2CCC3(CC2)Oc2ccccc2-c2c3cnn2C)c(O)c1 [Compound 470] | 2 to 5 µM
75 | COc1cc(C(=O)N2CCC3(CC2)Oc2cc(F)ccc2-n2cccc23)ccc1OCC(N)=O [Compound 772] | ≤ 2 µM
